Experimental data published in article PMC4556473 (British Journal of Pharmacology, 2015).

Legend:
F304Y mSlo3 = F304Y mSlo3 (Mus musculus, UniProt O54982, F304Y); test: Two-electrode voltage clamp of F304Y mSlo3 currents in Xenopus oocytes; assay type: cell-based; conditions: +100 mV
Method: A plasmid containing the full-length mSlo3 sequence was a gift from Dr L. Salkoff (Washington University School of Medicine) and the open-reading frame was subcloned into pBF (Baukrowitz et al., [1999]), a vector optimized for in vitro mRNA synthesis and Xenopus oocyte expression. […] The […] and […] mutations were introduced by Quikchange site-directed mutagenesis (Agilent Technologies, Stockport, UK) and confirmed by automated sequencing. In vitro transcription was carried out using the mMessage mMachine SP6 kit (Ambion, Huntingdon, UK) to produce capped mRNA. Individual oocytes were obtained from humanely killed female Xenopus laevis toads (housed either at the University of Leeds, UK or from the European Xenopus Resource Centre, University of Portsmouth, UK) and were injected with 10-50 ng RNA in a 40 nL volume. […] The volume of the bath was 0.5 mL, which was perfused at a rate of approximately 1 mL·min^-1. 100 mM K^+ solution was made by an equimolar replacement of NaCl with KCl. Data were analysed with […], OriginPro 7.5 (Originlab, Northampton, MA, USA), and GraphPad Prism 6 software (GraphPad Software, San Diego, CA, USA). […]

[1] = target: T1, WT mSlo3 (KCa5.1) channels (Mus musculus, UniProt O54982); test: Two-electrode voltage clamp of WT mSlo3 currents in Xenopus oocytes; assay type: cell-based; conditions: for inhibition of WT mSlo3 current: pulses to +100 mV
T1 construct: Full-length WT, R196Q and F304Y mSlo3 K^+ channel subunits were expressed in Xenopus oocytes; expressed in transfected cells; host or cells: Xenopus laevis oocytes injected with in vitro transcribed capped mRNA (pBF vector)
T1 sequence (O54982 1-1121): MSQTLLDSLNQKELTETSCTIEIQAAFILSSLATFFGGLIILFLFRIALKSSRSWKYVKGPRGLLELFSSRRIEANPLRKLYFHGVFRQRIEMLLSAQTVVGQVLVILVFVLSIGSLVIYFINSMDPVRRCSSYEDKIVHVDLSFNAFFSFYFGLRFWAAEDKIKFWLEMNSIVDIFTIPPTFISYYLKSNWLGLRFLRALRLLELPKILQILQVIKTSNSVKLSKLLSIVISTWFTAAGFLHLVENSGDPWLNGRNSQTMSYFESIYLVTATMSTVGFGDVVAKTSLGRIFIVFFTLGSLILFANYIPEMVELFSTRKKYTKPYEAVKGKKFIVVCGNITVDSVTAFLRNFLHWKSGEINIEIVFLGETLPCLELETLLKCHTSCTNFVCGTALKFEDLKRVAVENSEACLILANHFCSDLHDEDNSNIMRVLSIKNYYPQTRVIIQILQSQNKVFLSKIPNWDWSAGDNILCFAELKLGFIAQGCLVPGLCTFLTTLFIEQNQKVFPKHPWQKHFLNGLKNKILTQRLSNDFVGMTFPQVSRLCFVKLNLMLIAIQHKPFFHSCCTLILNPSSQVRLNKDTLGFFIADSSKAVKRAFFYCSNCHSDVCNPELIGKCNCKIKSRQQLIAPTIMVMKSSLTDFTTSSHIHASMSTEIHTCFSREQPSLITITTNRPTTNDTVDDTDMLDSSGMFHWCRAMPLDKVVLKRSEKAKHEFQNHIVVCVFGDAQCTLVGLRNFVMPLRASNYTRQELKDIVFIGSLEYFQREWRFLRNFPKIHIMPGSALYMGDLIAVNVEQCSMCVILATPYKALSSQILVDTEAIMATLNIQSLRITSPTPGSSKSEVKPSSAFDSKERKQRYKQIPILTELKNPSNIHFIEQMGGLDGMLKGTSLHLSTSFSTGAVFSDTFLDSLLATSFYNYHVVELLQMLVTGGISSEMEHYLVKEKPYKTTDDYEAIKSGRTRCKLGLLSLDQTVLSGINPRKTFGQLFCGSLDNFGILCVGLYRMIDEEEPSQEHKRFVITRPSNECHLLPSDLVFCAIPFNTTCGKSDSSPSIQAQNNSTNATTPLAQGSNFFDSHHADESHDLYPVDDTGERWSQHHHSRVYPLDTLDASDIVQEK
Method: A plasmid containing the full-length mSlo3 sequence was a gift from Dr L. Salkoff (Washington University School of Medicine) and the open-reading frame was subcloned into pBF (Baukrowitz et al., [1999]), a vector optimized for in vitro mRNA synthesis and Xenopus oocyte expression. […] The […] and […] mutations were introduced by Quikchange site-directed mutagenesis (Agilent Technologies, Stockport, UK) and confirmed by automated sequencing. In vitro transcription was carried out using the mMessage mMachine SP6 kit (Ambion, Huntingdon, UK) to produce capped mRNA. Individual oocytes were obtained from humanely killed female Xenopus laevis toads (housed either at the University of Leeds, UK or from the European Xenopus Resource Centre, University of Portsmouth, UK) and were injected with 10-50 ng RNA in a 40 nL volume. […] The volume of the bath was 0.5 mL, which was perfused at a rate of approximately 1 mL·min^-1. 100 mM K^+ solution was made by an equimolar replacement of NaCl with KCl. Data were analysed with […], OriginPro 7.5 (Originlab, Northampton, MA, USA), and GraphPad Prism 6 software (GraphPad Software, San Diego, CA, USA). […] Data are presented as the mean ± SEM of n individual oocytes and statistical significance tested using Student's t-test, ANOVA (with Bonferroni post hoc comparison of means), or by Kruskal-Wallis test (with Dunn's post hoc comparison) as indicated in the Results.

Chain of F304Y mSlo3 (O54982 whole entry F304Y): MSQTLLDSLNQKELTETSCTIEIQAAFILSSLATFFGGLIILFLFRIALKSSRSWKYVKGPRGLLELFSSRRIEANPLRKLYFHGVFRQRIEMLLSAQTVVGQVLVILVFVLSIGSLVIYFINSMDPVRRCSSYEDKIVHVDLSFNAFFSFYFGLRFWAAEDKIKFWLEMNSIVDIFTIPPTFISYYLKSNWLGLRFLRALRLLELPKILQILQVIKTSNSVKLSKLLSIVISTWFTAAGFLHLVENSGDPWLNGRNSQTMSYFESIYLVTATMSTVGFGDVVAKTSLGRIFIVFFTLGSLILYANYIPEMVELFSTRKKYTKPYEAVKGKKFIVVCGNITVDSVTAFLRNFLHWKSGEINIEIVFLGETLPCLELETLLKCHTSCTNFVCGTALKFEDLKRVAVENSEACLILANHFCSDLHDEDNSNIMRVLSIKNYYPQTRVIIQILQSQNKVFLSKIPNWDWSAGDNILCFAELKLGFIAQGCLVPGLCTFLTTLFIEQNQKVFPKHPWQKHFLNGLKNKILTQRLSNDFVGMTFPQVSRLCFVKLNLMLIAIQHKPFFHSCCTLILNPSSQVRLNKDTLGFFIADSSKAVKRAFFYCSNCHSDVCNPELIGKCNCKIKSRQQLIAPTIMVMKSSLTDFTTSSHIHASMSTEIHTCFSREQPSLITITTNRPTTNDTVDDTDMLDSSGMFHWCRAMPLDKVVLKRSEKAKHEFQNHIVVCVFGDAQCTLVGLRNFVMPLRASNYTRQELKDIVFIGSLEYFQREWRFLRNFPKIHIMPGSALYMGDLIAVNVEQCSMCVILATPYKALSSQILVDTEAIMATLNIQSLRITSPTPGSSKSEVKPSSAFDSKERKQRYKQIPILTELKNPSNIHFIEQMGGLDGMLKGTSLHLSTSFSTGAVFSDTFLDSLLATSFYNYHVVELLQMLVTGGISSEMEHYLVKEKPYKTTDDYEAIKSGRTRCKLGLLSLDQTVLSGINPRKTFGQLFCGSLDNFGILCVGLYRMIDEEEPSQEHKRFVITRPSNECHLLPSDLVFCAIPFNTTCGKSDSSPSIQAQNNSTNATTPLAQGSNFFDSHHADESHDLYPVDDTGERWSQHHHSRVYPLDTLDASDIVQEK

SMILES: [Ba+2].[Cl-].[Cl-] [Ba^2+, barium chloride]
- Hill slope of inhibition of F304Y mSlo3 currents (F304Y mSlo3): 1.05 ± 0.12
- IC50 (F304Y mSlo3; Xenopus oocytes, read-out: IC50 of inhibition of F304Y mSlo3 currents): 525 ± 97 µM
- inhibition of WT mSlo3 current ([1]; 2 mM, 2.5 mM extracellular K+): strongly inhibited
- inhibition of WT mSlo3 current in high extracellular K+ ([1]; 2 mM, extracellular K+ raised to 100 mM): prevented
- Hill slope of inhibition of WT mSlo3 currents ([1]; +100 mV): 0.88 ± 0.11
- IC50 ([1]; currents evoked by voltage pulses to +100 mV, Xenopus oocytes, 2.5 mM K+ Ringer's pH 8, read-out: IC50 of inhibition of WT mSlo3 currents): 646 ± 100 µM

SMILES: CC[N+](CC)(CC)CC.[Cl-] [TEA^+, tetraethlyammonium chloride]
- inhibition of WT mSlo3 current ([1]; 20 mM): weakly inhibited

SMILES: CCCCCCC[N+](CC)(CC)CCCCc1ccc(Cl)cc1 [clofilium]
- inhibition of WT mSlo3 current ([1]; 50 μM): more strongly inhibited

SMILES: COCC(=O)O[C@]1(CCN(C)CCCc2nc3ccccc3[nH]2)CCc2cc(F)ccc2[C@@H]1C(C)C [mibefridil, mibefradil]
- inhibition of WT mSlo3 current ([1]; 5 μM): weakly inhibited
